Experimental data from patent US20250230165A1, “HETEROCYCLIC COMPOUNDS FOR USE IN THE TREATMENT OF CANCER” (ARTIOS PHARMA LIMITED, priority 2021, published 2025).

Biological target: T1, Human Polθ polymerase domain (aa1820-2590) (Homo sapiens, UniProt O75417)
T1 construct: Human Polθ polymerase domain (aa1820-2590) was expressed in E. coli; made in house; host or cells: E. coli
T1 sequence (O75417 1820-2590): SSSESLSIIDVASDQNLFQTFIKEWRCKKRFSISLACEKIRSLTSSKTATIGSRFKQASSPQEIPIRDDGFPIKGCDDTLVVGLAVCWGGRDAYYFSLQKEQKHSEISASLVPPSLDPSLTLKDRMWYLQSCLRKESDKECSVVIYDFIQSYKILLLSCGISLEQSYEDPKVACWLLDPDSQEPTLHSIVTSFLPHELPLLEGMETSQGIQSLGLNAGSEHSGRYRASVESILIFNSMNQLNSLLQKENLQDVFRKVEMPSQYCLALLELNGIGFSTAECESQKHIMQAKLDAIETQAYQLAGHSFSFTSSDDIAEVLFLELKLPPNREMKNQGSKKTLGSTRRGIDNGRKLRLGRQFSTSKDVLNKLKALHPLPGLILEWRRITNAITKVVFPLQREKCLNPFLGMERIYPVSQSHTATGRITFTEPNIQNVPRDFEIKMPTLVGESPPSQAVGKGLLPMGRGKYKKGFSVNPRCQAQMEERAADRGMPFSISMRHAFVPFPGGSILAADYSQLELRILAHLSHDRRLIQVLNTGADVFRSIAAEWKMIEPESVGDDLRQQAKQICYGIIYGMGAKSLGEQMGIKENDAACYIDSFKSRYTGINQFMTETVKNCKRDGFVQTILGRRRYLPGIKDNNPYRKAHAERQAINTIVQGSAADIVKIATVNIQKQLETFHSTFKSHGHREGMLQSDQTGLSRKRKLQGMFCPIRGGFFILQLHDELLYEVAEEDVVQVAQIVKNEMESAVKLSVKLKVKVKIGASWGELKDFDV
Assay: Polθ Polymerase Domain Kinact/KI Assay (PicoGreen)
Format: biochemical
Settings: 0.8 nM Polθ, 100 nM DNA substrate, kobs vs [I] fit for 2-step covalent inhibitor
How it was run: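 Time-dependent inhibition was followed by quenching reactions with EDTA at points up to 60 min, then staining product DNA with PicoGreen fluorescence. Reactions held 0.8 nM E. coli-expressed Polθ, 100 nM primed DNA substrate and […] at pH 7.5, 1% DMSO. kobs versus inhibitor concentration gave Kinact and KI.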

Compound | Kinact/Kl [M⁻¹ s⁻¹]
Cc1cc(C(F)(F)F)cc(N2C(=O)C[C@@H]3CN(Cc4ccc([C@H]5CCCN5C(=O)/C=C/CN(C)C)cc4)c4c(F)cccc4N(C)C(=O)[C@H]32)n1 (racemic) [Example 170a, (3aR,11aS)-5-(4-((R/S)-1-((E)-4-(dimethylamino)-but-2-enoyl)pyr-rolidin-2-yl)benz-yl)-6-fluoro-10-methyl-1-(6-methyl-4-(tri-fluoromethyl)-pyridin-2-yl)-1,3a,4,5,10,11a-hexahydro-2H-benzo[b]pyrrolo [2,3-f][1,4]diazo-cine-2,11(3H)-dione] | 880000
Cc1cc(C(F)(F)F)cc(N2C(=O)C[C@@H]3CN(Cc4ccc([C@@H]5CCCN5C(=O)/C=C/CN(C)C)cc4)c4c(F)cccc4N(C)C(=O)[C@H]32)n1 (racemic) [Example 170b, (3aR,11aS)-5-(4-((S/R)-1-((E)-4-(dimethylamino)-but-2-enoyl)pyr-rolidin-2-yl)benz-yl)-6-fluoro-10-methyl-1-(6-methyl-4-(tri-fluoromethyl)-pyridin-2-yl)-1,3a,4,5,10,11a-hexahydro-2H-benzo[b]pyrrolo [2,3-f][1,4]diazo-cine-2,11(3H)-dione] | 410000
C=C(CN(C)C)C(=O)N1CCC[C@@H]1c1ccc(CN2C[C@H]3CC(=O)N(c4cc(C(F)(F)F)cc(C)n4)[C@@H]3C(=O)N(C)c3cccc(F)c32)cc1 (racemic) [Example 171a, (3aR,11aS)-5-(4-((R/S)-1-(2-((di-methylamino)-methyl)acryloyl)-pyrrolidin-2-yl)-benzyl)-6-fluoro-10-methyl-1-(6-methyl-4-(tri-fluoromethyl)-pyridin-2-yl)-1,3a,4,5,10,11a-hexahydro-2H-benzo[b]pyrrolo [2,3-f][1,4]diazo-cine-2,11(3H)-dione] | 2.29e+06
C=C(CN(C)C)C(=O)N1CCC[C@H]1c1ccc(CN2C[C@H]3CC(=O)N(c4cc(C(F)(F)F)cc(C)n4)[C@@H]3C(=O)N(C)c3cccc(F)c32)cc1 (racemic) [Example 171b, (3aR,11aS)-5-(4-((S/R)-1-(2-((di-methylamino)-methyl)acryloyl)-pyrrolidin-2-yl)-benzyl)-6-fluoro-10-methyl-1-(6-methyl-4-(tri-fluoromethyl)-pyridin-2-yl)-1,3a,4,5,10,11a-hexahydro-2H-benzo[b]pyrrolo [2,3-f][1,4]diazo-cine-2,11(3H)-dione] | 1.62e+06
C=CC(=O)N1CC(N2CCC[C@H](CN3C[C@H]4CC(=O)N(c5cc(C(F)(F)F)cc(C)n5)[C@@H]4C(=O)N(C)c4cccc(F)c43)C2)C1 (racemic) [Example 225b, (3aR,11aS)-5-(((S/R)-1-(1-acryloylazetidin-3-yl)piperidin-3-yl)methyl)-6-fluoro-10-methyl-1-(6-methyl-4-(trifluoromethyl)pyridin-2-yl)-1,3a,4,5,10,11a-hexahydro-2H-benzo[b] pyrrolo[2,3-f] [1,4]diazocine-2,11(3H)-dione] | 1.31e+06

Other lines, results leading:

Kinact/Kl [M⁻¹ s⁻¹] | Compound
2e+06 | C=CC(=O)N1Cc2nc(CN3C[C@H]4CC(=O)N(c5cc(C(F)(F)F)cc(C)n5)[C@@H]4C(=O)Nc4cccc(Cl)c43)cn2C[C@@H]1C (racemic) [Example 144b, (3aR,11aS)-5-(((S/R)-7-acryloyl-6-methyl-5,6,7,8-tetrahydroimidazo[1,2-a]pyrazin-2-yl)methyl)-6-chloro-1-(6-methyl-4-(trifluoromethyl)pyridin-2-yl)-1,3a,4,5,10,11a-hexahydro-2H-benzo[b]pyrrolo[2,3-f][1,4]diazocine-2,11(3H)-dione]
900000 | C#CC(=O)N1Cc2nc(CN3C[C@H]4CC(=O)N(c5cc(C(F)(F)F)cc(C)n5)[C@@H]4C(=O)N(C)c4cccc(Cl)c43)cn2C[C@@H]1C (racemic) [Example 172a, (3aR,11aS)-6-chloro-10-meth-yl-1-(6-methyl-4-(trifluorometh-yl)pyridin-2-yl)-5-(((S/R)-6-meth-yl-7-propioloyl-5,6,7,8-tetra-hydroimidazo [1,2-a]pyrazin-2-yl)methyl)-1,3a, 4,5,10,11a-hexa-hydro-2H-benzo [b]pyrrolo[2,3-f] [1,4]diazocine-2,11(3H)-dione]
280000 | C#CC(=O)N1Cc2nc(CN3C[C@H]4CC(=O)N(c5cc(C(F)(F)F)cc(C)n5)[C@@H]4C(=O)N(C)c4cccc(Cl)c43)cn2C[C@H]1C (racemic) [Example 172b, (3aR,11aS)-6-chloro-10-meth-yl-1-(6-methyl-4-(trifluoro-methyl)pyridin-2-yl)-5-(((R/S)-6-methyl-7-propioloyl-5,6,7,8-tetra-hydroimidazo [1,2-a]pyrazin-2-yl)methyl)-1,3a,4,5,10,11a-hexahydro-2H-benzo[b]pyrrolo [2,3-f][1,4]diazo-cine-2,11(3H)-dione]
1.38e+06 | C#CC(=O)N1Cc2nc(CN3C[C@H]4CC(=O)N(c5cc(C(F)(F)F)cc(C)n5)[C@@H]4C(=O)N(C)c4cccc(C)c43)cn2C[C@H]1C (racemic) [Example 199, (3aR,11aS)-6,10-dimethyl-1-(6-methyl-4-(tri-fluoromethyl)pyr-idin-2-yl)-5-(((R/S)-6-methyl-7-propioloyl-5,6,7,8-tetrahydro-imidazo[1,2-a]pyr-azin-2-yl)methyl)-1,3a,4,5,10,11a-hexahydro-2H-benzo[b]pyrrolo [2,3-f][1,4]diazo-cine-2,11(3H)-dione]
4.19e+06 | C=CC(=O)N1Cc2nc(CN3C[C@H]4CC(=O)N(c5cc(C(F)(F)F)cc(C)n5)[C@@H]4C(=O)N(C)c4cccc(C)c43)cn2C[C@@H]1C (racemic) [Example 206b, (3aR,11aS)-5-(((S/R)-7-acryloyl-6-methyl-5,6,7,8-tetrahydroimidazo [1,2-a]pyrazin-2-yl)methyl)-6,10-dimethyl-1-(6-methyl-4-(trifluoromethyl)pyridin-2-yl)-1,3a,4,5,10,11a-hexahydro-2H-benzo[b]pyrrolo [2,3-f][1,4]diazocine-2,11(3H)-dione]
860000 | C=CC(=O)N1Cc2cc(CN3C[C@H]4CC(=O)N(c5cc(C(F)(F)F)cc(C)n5)[C@@H]4C(=O)N(C)c4cccc(Cl)c43)cnc2[C@H]1CO (racemic) [Example 231, (3aR,11aS)-5-(((S/R)-6-acryloyl-7-(hydroxymethyl)-6,7-dihydro-5H-pyrrolo[3,4-b]pyridin-3-yl)methyl)-6-chloro-10-methyl-1-(6-methyl-4-(trifluoromethyl)pyridin-2-yl)-1,3a,4,5,10,11a-hexahydro-2H-benzo[b]pyrrolo[2,3-f][1,4]diazocine-2,11(3H)-dione]
2.99e+06 | C=CC(=O)N1Cc2cc(CN3C[C@H]4CC(=O)N(c5cc(C(F)(F)F)cc(C)n5)[C@@H]4C(=O)N(C)c4cccc(C)c43)cnc2[C@H]1CO (racemic) [Example 233, (3aR,11aS)-5-(((S/R)-6-acryloyl-7-(hydroxymethyl)-6,7-dihydro-5H-pyrrolo[3,4-b]pyridin-3-yl)methyl)-6,10-dimethyl-1-(6-methyl-4-(trifluoromethyl)pyridin-2-yl)-1,3a,4,5,10,11a-hexahydro-2H-benzo[b]pyrrolo[2,3-f][1,4]diazocine-2,11(3H)-dione]
